The structures appear in SMILES notation. pIC50: −log10 of the molar value. Positions of bridges follow the written chain, without caps; N, C: chain ends. Non-standard residues stand in square brackets, D forms with d. Residues, ends and D or L forms follow the SMILES beside them. Abu = CC[C@H](N)C(=O)O

Complement C3, sequence (P01024 23-667 limits assumed): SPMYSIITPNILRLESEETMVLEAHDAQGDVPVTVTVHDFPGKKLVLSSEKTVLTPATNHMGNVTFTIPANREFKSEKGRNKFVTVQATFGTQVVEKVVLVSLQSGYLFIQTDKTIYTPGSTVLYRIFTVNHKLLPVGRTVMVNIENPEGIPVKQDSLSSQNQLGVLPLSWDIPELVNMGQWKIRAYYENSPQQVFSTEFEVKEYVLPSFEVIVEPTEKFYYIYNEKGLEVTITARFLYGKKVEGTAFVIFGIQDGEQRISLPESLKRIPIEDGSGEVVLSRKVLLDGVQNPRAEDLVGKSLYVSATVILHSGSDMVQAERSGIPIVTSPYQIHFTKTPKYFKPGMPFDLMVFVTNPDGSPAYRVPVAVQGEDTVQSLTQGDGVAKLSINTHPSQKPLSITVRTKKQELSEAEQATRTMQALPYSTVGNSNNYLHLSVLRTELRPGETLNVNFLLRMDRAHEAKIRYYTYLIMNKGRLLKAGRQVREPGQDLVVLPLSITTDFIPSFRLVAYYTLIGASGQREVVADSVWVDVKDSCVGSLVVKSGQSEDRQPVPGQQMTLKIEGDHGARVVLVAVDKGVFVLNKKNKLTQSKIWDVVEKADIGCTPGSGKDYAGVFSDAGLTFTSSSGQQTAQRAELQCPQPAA
Complement C3, sequence (P01024 672-1663 limits assumed): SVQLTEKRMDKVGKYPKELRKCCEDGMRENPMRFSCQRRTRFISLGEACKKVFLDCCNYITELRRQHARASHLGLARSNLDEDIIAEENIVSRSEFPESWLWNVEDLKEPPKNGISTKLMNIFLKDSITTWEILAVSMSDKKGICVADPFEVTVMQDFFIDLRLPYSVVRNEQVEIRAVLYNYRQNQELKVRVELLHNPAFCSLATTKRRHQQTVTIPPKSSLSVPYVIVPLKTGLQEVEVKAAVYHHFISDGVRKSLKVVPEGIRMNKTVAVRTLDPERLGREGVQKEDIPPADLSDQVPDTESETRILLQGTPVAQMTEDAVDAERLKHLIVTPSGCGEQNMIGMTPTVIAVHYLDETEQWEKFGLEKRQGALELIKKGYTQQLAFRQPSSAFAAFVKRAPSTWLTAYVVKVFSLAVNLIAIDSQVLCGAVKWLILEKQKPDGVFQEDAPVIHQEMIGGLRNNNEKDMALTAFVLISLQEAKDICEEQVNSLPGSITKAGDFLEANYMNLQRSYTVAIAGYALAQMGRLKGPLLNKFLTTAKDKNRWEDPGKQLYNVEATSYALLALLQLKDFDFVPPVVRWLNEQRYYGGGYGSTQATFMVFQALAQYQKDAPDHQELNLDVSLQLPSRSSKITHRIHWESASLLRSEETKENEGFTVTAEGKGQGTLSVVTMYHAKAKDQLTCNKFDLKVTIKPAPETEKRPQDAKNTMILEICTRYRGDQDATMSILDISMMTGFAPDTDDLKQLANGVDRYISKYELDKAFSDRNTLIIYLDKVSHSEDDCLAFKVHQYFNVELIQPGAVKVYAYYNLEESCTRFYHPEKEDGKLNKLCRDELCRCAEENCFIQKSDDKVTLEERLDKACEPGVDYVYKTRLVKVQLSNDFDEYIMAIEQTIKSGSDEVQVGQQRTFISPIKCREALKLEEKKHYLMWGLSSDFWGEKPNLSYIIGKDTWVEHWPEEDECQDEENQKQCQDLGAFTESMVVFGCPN

This assay addresses Complement C3 (Homo sapiens, UniProt P01024). The assay is described as follows: Inhibitory concentration for human complement component C3 activation.
The compound `CC[C@H](C)[C@H](NC(C)=O)C(=O)N[C@H]1CSSC[C@@H](C(=O)N[C@H](C(=O)O)[C@@H](C)O)NC(=O)[C@H](CCCN=C(N)N)NC(=O)[C@H](Cc2c[nH]cn2)NC(=O)[C@H](C)NC(=O)CNC(=O)[C@H](Cc2c[nH]c3ccccc23)NC(=O)[C@H](CC(=O)O)NC(=O)[C@H](CCC(N)=O)NC(=O)[C@H](Cc2ccc(C(=O)c3ccccc3)cc2)NC(=O)[C@H](C(C)C)NC1=O` showed a negative-log IC50 (pIC50) of 5.96.

In turn, `CC[C@H](C)[C@H](NC(C)=O)C(=O)N[C@H]1CSSC[C@@H](C(=O)N[C@H](C(=O)O)[C@@H](C)O)NC(=O)[C@H](CCCN=C(N)N)NC(=O)[C@H](Cc2c[nH]cn2)NC(=O)[C@H](C)NC(=O)CNC(=O)[C@H](Cc2c[nH]c3ccccc23)NC(=O)[C@H](CC(=O)O)NC(=O)[C@H](CCC(N)=O)NC(=O)[C@H](Cc2cccc3ccccc23)NC(=O)[C@H](C(C)C)NC1=O` had a pIC50 of 5.74.

In turn, `CC[C@H](C)[C@H](NC(C)=O)C(=O)N[C@H]1CSSC[C@@H](C(N)=O)NC(=O)[C@H](CCCN=C(N)N)NC(=O)[C@H](Cc2c[nH]cn2)NC(=O)[C@H](Cc2c[nH]cn2)NC(=O)CNC(=O)[C@@H](Cc2c[nH]c3ccccc23)NC(=O)[C@H](CC(=O)O)NC(=O)[C@H](CCC(N)=O)NC(=O)[C@H](C(C)C)NC(=O)[C@H](C(C)C)NC1=O` showed a pIC50 of less than 3.00.

Take `CC[C@H](C)[C@H](NC(=O)[C@@H]1CSSC[C@H](NC(=O)[C@@H](NC(C)=O)[C@@H](C)CC)C(=O)N[C@@H](C(C)C)C(=O)N[C@@H](Cc2ccc(OP(=O)(O)O)cc2)C(=O)N[C@@H](CCC(N)=O)C(=O)N[C@@H](CC(=O)O)C(=O)N[C@@H](Cc2c[nH]c3ccccc23)C(=O)NCC(=O)N[C@@H](C)C(=O)N[C@@H](Cc2c[nH]cn2)C(=O)N[C@@H](CCCN=C(N)N)C(=O)N1)C(N)=O`: the pIC50 was 5.02.

As for `CC[C@H](C)[C@H](NC(C)=O)C(=O)N[C@H]1CSSC[C@@H](C(N)=O)NC(=O)[C@H](CCCNC(=N)N)NC(=O)[C@H](Cc2cnc[nH]2)NC(=O)[C@H](Cc2cnc[nH]2)NC(=O)CNC(=O)[C@H](Cc2c[nH]c3ccccc23)NC(=O)[C@@H](CC(=O)O)NC(=O)[C@H](CCC(N)=O)NC(=O)[C@H](C(C)C)NC(=O)[C@H](C(C)C)NC1=O`, the pIC50 was less than 3.00.

`CC[C@H](C)[C@H](NC(C)=O)C(=O)N[C@H]1CSSC[C@@H](C(=O)N[C@H](C(=O)O)[C@@H](C)O)NC(=O)[C@H](CCCN=C(N)N)NC(=O)[C@H](Cc2c[nH]cn2)NC(=O)[C@H](C)NC(=O)CNC(=O)[C@H](Cc2c[nH]c3ccccc23)NC(=O)[C@H](CC(=O)O)NC(=O)[C@H](CCC(N)=O)NC(=O)[C@H](Cc2csc3ccccc23)NC(=O)[C@H](C(C)C)NC1=O` gave a negative-log IC50 (pIC50) of 6.10.

The compound `CC[C@H](C)[C@H](NC(=O)[C@@H]1CSSC[C@H](NC(=O)[C@@H](NC(C)=O)[C@@H](C)CC)C(=O)N[C@@H](C(C)C)C(=O)N[C@H](Cc2c[nH]c3ccccc23)C(=O)N[C@@H](CCC(N)=O)C(=O)N[C@@H](CC(=O)O)C(=O)N[C@@H](Cc2c[nH]c3ccccc23)C(=O)NCC(=O)N[C@@H](C)C(=O)N[C@@H](Cc2c[nH]cn2)C(=O)N[C@@H](CCCN=C(N)N)C(=O)N1)C(N)=O` gave a pIC50 of less than 3.00.

As to `CC[C@H](C)[C@H](NC(C)=O)C(=O)N[C@H]1CSSC[C@@H](C(N)=O)NC(=O)[C@H](CCCN=C(N)N)NC(=O)[C@H](Cc2c[nH]cn2)NC(=O)[C@H](Cc2c[nH]cn2)NC(=O)CNC(=O)[C@H](Cc2c[nH]c3ccccc23)NC(=O)[C@H](CC(=O)O)NC(=O)[C@@H](CCC(N)=O)NC(=O)[C@H](C(C)C)NC(=O)[C@H](C(C)C)NC1=O`, the negative logarithm of the IC50 (pIC50) is less than 3.00.

Turning to `CC[C@H](C)[C@H](NC(C)=O)C(=O)N[C@H]1CSSC[C@@H](C(=O)N[C@H](C(N)=O)[C@@H](C)O)NC(=O)[C@H](CCCNC(=N)N)NC(=O)[C@H](Cc2c[nH]cn2)NC(=O)[C@H](C)NC(=O)CNC(=O)[C@H](Cc2c[nH]c3ccccc23)NC(=O)[C@H](CC(=O)O)NC(=O)[C@H](CCC(N)=O)NC(=O)[C@H](Cc2ccc3ccccc3c2)NC(=O)[C@H](C(C)C)NC1=O`, the negative logarithm of the IC50 (pIC50) is 6.30.

Take `CC[C@H](C)[C@H](NC(C)=O)C(=O)N[C@H]1CSSC[C@@H](C(=O)N[C@H](C(N)=O)[C@@H](C)O)NC(=O)[C@H](CCCNC(=N)N)NC(=O)[C@H](Cc2cnc[nH]2)NC(=O)[C@H](C)NC(=O)CNC(=O)[C@H](Cc2c[nH]c3ccccc23)NC(=O)[C@H](CC(=O)O)NC(=O)[C@H](CCC(N)=O)NC(=O)[C@H](Cc2ccc(C(=O)c3ccccc3)cc2)NC(=O)[C@H](C(C)C)NC1=O`: the negative logarithm of the IC50 (pIC50) is 6.22.

As for `CC[C@H](C)[C@H](NC(C)=O)C(=O)N[C@H]1CSSC[C@@H](C(=O)N[C@H](C(=O)O)[C@@H](C)O)NC(=O)[C@H](CCCNC(=N)N)NC(=O)[C@H](Cc2cnc[nH]2)NC(=O)[C@H](C)NC(=O)CNC(=O)[C@H](Cc2c[nH]c3ccccc23)NC(=O)[C@H](CC(=O)O)NC(=O)[C@H](CCC(N)=O)NC(=O)[C@H](Cc2ccc3ccccc3c2)NC(=O)[C@H](C(C)C)NC1=O`, the pIC50 was 5.85.

As for `CC[C@H](C)[C@H](NC(C)=O)C(=O)N[C@H]1CSSC[C@@H](C(=O)N[C@H](C(N)=O)[C@@H](C)O)NC(=O)[C@H](CCCN=C(N)N)NC(=O)[C@H](Cc2c[nH]cn2)NC(=O)[C@H](C)NC(=O)CNC(=O)[C@H](Cc2c[nH]c3ccccc23)NC(=O)[C@H](CC(=O)O)NC(=O)[C@H](CCC(N)=O)NC(=O)[C@H](C2Cc3ccccc3C2)NC(=O)[C@H](C(C)C)NC1=O`, the pIC50 was 5.85.

Regarding `CC[C@H](C)[C@H](NC(C)=O)C(=O)N[C@H]1CSSC[C@@H](C(=O)N[C@H](C(=O)O)[C@@H](C)O)NC(=O)[C@H](CCCN=C(N)N)NC(=O)[C@H](Cc2c[nH]cn2)NC(=O)[C@H](C)NC(=O)CNC(=O)[C@H](Cc2c[nH]c3ccccc23)NC(=O)[C@H](CC(=O)O)NC(=O)[C@H](CCC(N)=O)NC(=O)[C@H](CC2CNc3ccccc32)NC(=O)[C@H](C(C)C)NC1=O` (stereo partly drawn), the negative logarithm of the IC50 (pIC50) is 4.99.

Take `CC[C@H](C)[C@H](NC(C)=O)C(=O)N[C@H]1CSSC[C@@H](C(=O)N[C@H](C(=O)O)[C@@H](C)O)NC(=O)[C@H](CCCN=C(N)N)NC(=O)[C@H](Cc2c[nH]cn2)NC(=O)[C@H](C)NC(=O)CNC(=O)[C@H](Cc2c[nH]c3ccccc23)NC(=O)[C@H](CC(=O)O)NC(=O)[C@H](CCC(N)=O)NC(=O)[C@H](CC2CCCCC2)NC(=O)[C@H](C(C)C)NC1=O`: the negative logarithm of the IC50 (pIC50) is 4.32.

For `CC[C@H](C)[C@H](NC(=O)[C@@H]1CSSC[C@H](NC(=O)[C@@H](NC(C)=O)[C@@H](C)CC)C(=O)N[C@@H](C(C)C)C(=O)N[C@H](Cc2ccc(O)cc2)C(=O)N[C@@H](CCC(N)=O)C(=O)N[C@@H](CC(=O)O)C(=O)N[C@@H](Cc2c[nH]c3ccccc23)C(=O)NCC(=O)N[C@@H](C)C(=O)N[C@@H](Cc2c[nH]cn2)C(=O)N[C@@H](CCCN=C(N)N)C(=O)N1)C(N)=O`, the negative-log IC50 (pIC50) was less than 3.00.

`CC[C@H](C)[C@H](NC(C)=O)C(=O)N[C@H]1CSSC[C@@H](C(=O)N[C@H](C(N)=O)[C@@H](C)O)NC(=O)[C@H](CCCN=C(N)N)NC(=O)[C@H](Cc2c[nH]cn2)NC(=O)[C@H](C)NC(=O)CNC(=O)[C@H](Cc2c[nH]c3ccccc23)NC(=O)[C@H](CC(=O)O)NC(=O)[C@H](CCC(N)=O)NC(=O)[C@H](Cc2csc3ccccc23)NC(=O)[C@H](C(C)C)NC1=O` gave a pIC50 of 6.10.

`CC[C@H](C)[C@H](NC(C)=O)C(=O)N[C@H]1CSSC[C@@H](C(=O)N[C@H](C(=O)O)[C@@H](C)O)NC(=O)[C@H](CCCNC(=N)N)NC(=O)[C@H](Cc2cnc[nH]2)NC(=O)[C@H](C)NC(=O)CNC(=O)[C@H](Cc2c[nH]c3ccccc23)NC(=O)[C@H](CC(=O)O)NC(=O)[C@H](CCC(N)=O)NC(=O)[C@H](C2Cc3ccccc3C2)NC(=O)[C@H](C(C)C)NC1=O`: the negative logarithm of the IC50 (pIC50) is 5.82.

In turn, `CC[C@@H]1NC(=O)CNC(=O)[C@H](Cc2c[nH]c3ccccc23)NC(=O)[C@H](CC(=O)O)NC(=O)[C@H](CCC(N)=O)NC(=O)[C@H](Cc2c[nH]c3ccccc23)NC(=O)[C@H](C(C)C)NC(=O)[C@@H](NC(=O)[C@@H](NC(C)=O)[C@@H](C)CC)CSSC[C@@H](C(=O)N[C@H](C(N)=O)[C@@H](C)O)NC(=O)[C@H](CCCN=C(N)N)NC(=O)[C@H](Cc2c[nH]cn2)NC1=O` (Ac-ICVWQDWG[Abu]HRCT-NH2; disulfide 2-12) showed a pIC50 of 5.82.

One may read the pIC50 as −log10 of the IC50, conventionally taken in molar units. Read a high pIC50 as a small IC50.

These data come from ChEMBL document CHEMBL1139489, “Design and NMR characterization of active analogues of compstatin containing non-natural amino acids” (J Med Chem, 2005).
